Experimental data reported in patent publication US20140243411A1 (priority 2011, published 2014).

Assays:
[1] = Physical-chemical characterization: viscosity and density; format: physicochemical
Experimental: More than a dozen esters and amide derivatives of DTPA were synthesized. […] C2E5 is an oil with a viscosity of 163 cps at 25° C. […] The density of C2E5 was determined to be 1.119 g/mL. […] The intrinsic partition coefficient (log P) of C2E5 is difficult to measure due to its instability at high pH. Thus, the log D6.0 was determined by measuring the partitioning of C2E5 into octanol and water phases.
The solvent evaporation method was subsequently used to prepare the C2E5 non-aqueous gel formulations.

[2] = tested on: rats contaminated with ^241Am; test: Radionuclide decorporation efficacy study in rats contaminated with 241Am (Example 10): excretion, tissue content, liver and skeleton burden; format: in vivo, SD rats
Experimental: All animal studies were conducted according to a protocol approved by the University of North Carolina at Chapel Hill Institutional Animal Care and Use Committee (IACUC). Ten-week-old adult female SD rats weighing from 200 to 300 g were used in these studies (Charles River Labs, Raleigh, N.C.). Food and water were given ad libitum. The animal room was kept at a controlled temperature (23° C.) and light cycle (light exposure from 8 AM to 8 PM). For the duration of the study, the rats were housed in metabolic cages individually with daily urine and feces collection until euthanasia on Day 7.
To evaluate the efficacy of transdermal delivery of the C2E5 nonaqueous gel, a radionuclide decorporation efficacy study was conducted in rats contaminated with ^241Am. Adult female SD rats were anesthetized with 2-3% isoflurane. Dorsal skin between the cervical vertebrae and anterior thoracic vertebrae was clipped with caution before all animals were contaminated with [^241Am]-Americium nitrate solution (250 nCi, 0.1 mL) via an i.m. injection in anterior thigh muscle. The C2E5 nonaqueous gel was applied at dose of 1000 mg/kg using a cotton swap to a 6 cm^2 (2 cm×3 cm) area of the clipped dorsal region immediately after contamination. A jacket with plastic dorsal insert (VWR International) was placed on the rat to protect the gel application region. The mass of C2E5 gel applied was recorded for each animal to permit the actual dose determination. The animals were housed in metabolic cages individually after C2E5 treatment and were euthanized 7 days after contamination. Positive and negative controls included animals administered Ca-DTPA intravenously and animals without any treatment. The animals were observed once daily and their body weights recorded at pre-dose and prior to necropsy, Urine and feces were collected daily until euthanasia, when the liver, kidneys, both femurs and the muscle tissue from around the injection site were also collected. Cage washes were collected at the end of each experiment. As ˜35% of the decay of ^241Am is associated with photon emissions of 59.7 keV, ^241Am present in samples was quantified using a gamma counter (2470 Wizard 2, Perkin Elmer). The samples were counted for one minute using a 40-80 keV energy detection window and were background-corrected. Additionally, ^241Am activity was quantified in 2×0.1 mL aliquots of the dosing solution. For all samples, ^241Am content was expressed as a percentage of the initial dose.
where % ID represents the percent of injected dose. Where data for both femurs were available, an estimate of the total skeletal burden was made using the method of Volf with modification in which the counts in the contra-lateral femur were multiplied by 19 and added to the counts in the ipsi-lateral femur. The modification for the literature method was due to higher ^241Am content in ipsi-lateral femur as a result of i.m. injection in anterior thigh muscle.
Statistically significant differences among groups were determined using one-way ANOVA with Tukey's post hoc comparison. All measurements are expressed as mean±standard deviation (S.D.). The level of significance was set at p<0.05.

[3] = In vitro C2E5 metabolism studies using SD rat skin S9 fractions; format: in vitro ADME
[4] = rats, seven days following a single dose, Ca-DTPA 14 mg/kg i.v., C2E5 1000 mg/kg transdermal
[5] = seven days after single dose, Ca-DTPA 14 mg/kg i.v., C2E5 1000 mg/kg transdermal gel
[6] = seven days, 1000 mg/kg transdermal

With `CCOC(=O)CN(CCN(CC(=O)OCC)CC(=O)OCC)CCN(CC(=O)OCC)CC(=O)OCC` [Formulation C2E5, penta-substituted ethyl ester of DTPA] the density [1] was 1.119 g/mL, the viscosity ([1]; 25° C.) was 163 cps and the “Skeleton Burden (% of ID)” value ([2]; contra-lateral femur × 19 + ipsi-lateral femur, rats, seven days following a single dose, Ca-DTPA 14 mg/kg i.v. (n = 3), C2E5 1000 mg/kg transdermal) was 9.6 ± 0.9 % of ID. The “Ipsi-lateral femur content of 241Am” value ([2]; rats, seven days following a single dose, Ca-DTPA 14 mg/kg i.v. (one animal excluded), C2E5 1000 mg/kg transdermal) was 0.54 ± 0.10 % of ID of ^241Am, the “% of Reduction over control (liver burden)” value [2, 4] was 49.1% and the “% of Reduction over control (skeleton burden)” value [2, 4] was 41.1%. For the same molecule, the “Contra-lateral femur content of 241Am” value [2, 4] was 0.48 ± 0.05 % of ID of ^241Am, the “Kidney content of 241Am” value [2, 4] was 0.63 ± 0.07 % of ID of ^241Am and the “Liver Burden (% of ID)” value [2, 4] was 8.4 ± 2.0 % of ID. For the same molecule, the “Liver content of 241Am” value [2, 4] was 8.4 ± 2.0 % of ID of ^241Am, the “Muscle-contra content of 241Am” value [2, 4] was 0.0078 ± 0.0017 % of ID of ^241Am per gram of muscle-contra and the “Muscle-ipsi content of 241Am” value [2, 4] was 44.3 ± 2.0 % of ID of ^241Am. For the same molecule, the “Pelt at injection site content of 241Am” value [2, 4] was 0.84 ± 0.66 % of ID of ^241Am, the “Total decorporation (% of ID of 241Am)” value [2, 4] was 26.2 ± 2.7 % of ID of ^241Am and the “reduction of liver burden of ^241Am versus control group” value ([2]; seven days after single dose, Ca-DTPA 14 mg/kg i.v., C2E5 1000 mg/kg transdermal) was 49.1%. The “% of Enhanced decorporation over control” value [2, 5] was 279.9%, the “Cumulative excretion of ^241Am In feces” value [2, 5] was 7.8 ± 1.2 % of ID and the “Cumulative excretion of ^241Am In urine” value [2, 5] was 18.4 ± 1.8 % of ID. For the same molecule, the “Cumulative excretion of ^241Am Total” value [2, 5] was 26.2 ± 2.7 % of ID, the “^241Am burden in the ipsi-lateral femur versus no-treatment control” value [2, 6] was “statistically significant reduction” and the “skeleton burden of ^241Am versus control group” value [2, 6] was “statistically significant reduction”. The “conversion of C2E5 to DTPA” value [3] was “only minimally observed”.
